The record followed here is paper PMC9743090, “Induction of Ferroptosis in Glioblastoma and Ovarian Cancers by a New Pyrrole Tubulin Assembly Inhibitor” (Journal of Medicinal Chemistry, 2022).

In data set [1] the test system is MCF-7 human breast carcinoma cells. Nature of the data set: Inhibition of the growth of MCF-7 human breast carcinoma cells. It is filed as cell-based. The note with it: for IC50: Homo sapiens, MCF7, inhibition of cell growth, cells grown for 96 h, read-out: MCF-7 IC50 ± SD. On the procedure: The methodology for the evaluation of the growth of human MCF-7 breast carcinoma cells was previously described, except that cells were grown for 96 h for IC50 determinations.[66] U-87 MG and OVCAR-3 proliferation assays were performed plating 10^4 cells/cm^2 in a Multiwell 24. The day after, cells were treated with compound 15, and DMSO was used as a control. Cells were counted 48 h later with a Bürker counting chamber, after dilution in TrypanBlue (#T6146 Sigma-Aldrich).

The test system of data set [2] is tubulin. Nature of the data set: Inhibition of tubulin polymerization (assembly assay). It is filed as biochemical. The note with it: tubulin at 10 μM, read-out: Tubulin IC50 ± SD. Here is the method:
(§1) The assembly reaction mixtures contained 0.8 M monosodium glutamate (pH 6.6 with HCl in a 2 M stock solution), 10 μM tubulin, 4% (v/v) DMSO, and varying concentrations of the drug. Following a 15 min preincubation at 30 °C, samples were chilled on ice, GTP to 0.4 mM was added, and turbidity development was followed at 350 nm in a temperature-controlled recording spectrophotometer for 20 min at 30 °C. The extent of reaction was measured. Full experimental details were previously described.[63] For the colchicine binding assay, reaction mixtures contained 1.0 μM tubulin, 5.0 μM [^3H]colchicine, and 5.0 or 1.0 μM inhibitor and were incubated for 10 min at 37 °C. Complete details were described previously.[64]

The test system of data set [3] is tubulin. Nature of the data set: Inhibition of [3H]colchicine binding to tubulin. The following applies: for Inhib. colch. binding 1-5-5 (% ± SD): inhibitor at 1:5:5 μM. On the procedure: as §1
Data set [4] in a line: Metabolic stability in human liver microsomes. The following applies: HLM 0.5 mg/mL, 1 μM, n = 2. It is filed as in vitro ADME. Here is the method: (§2) Mouse (Sigma Aldrich, CD-1 male, pooled) and human microsomes (Sigma Aldrich, human, pooled) at 0.5 mg/mL were preincubated with the test compound 15 dissolved in DMSO at 1 μM in phosphate buffer 50 mM, pH 7.4, and 3 mM MgCl2 for 10 min at 37 °C. The reaction was then started by adding the cofactor mixture solution (NADP, glucose-6-phosphate, glucose-6-phosphate dehydrogenase in 2% NaHCO3). Samples were taken at 0, 10, 30, 45, and 60 min and added to acetonitrile to stop the reaction. Samples were then centrifuged, and the supernatant was analyzed by LC–MS/MS to quantify the amount of the compound. A control sample without the cofactor was always added to check the chemical stability of the test compound. […] A fixed concentration of verapamil was added in every sample as an internal standard for LC–MS/MS analyses. The percentage of the area of the test compound remaining at the various incubation times was calculated with respect to the area of the compound at time 0 min.
(§3) The rate constant, k (min^–1), derived for the exponential decay equation (peak area/IS vs time), was used to calculate the rate of Cli.
(§4) Samples were analyzed under the following conditions: UPLC Waters coupled with an API 3200 triple-quadrupole (ABSciex); eluents, (phase A) 95% water, 5% acetonitrile + 0.1% HCOOH, (phase B) 5% water, 95% acetonitrile + 0.1% HCOOH; flow rate, 0.3 mL/min; column, Gemini-Nx 5 μm C18 110A (50 × 2.00 mm) at 35 °C; injection volume, 10 μL. Source conditions ESI positive: T 400 °C, Gas 1 30, Gas 2 35, CUR 30, IS 5500, CAD 5.

Data set [5] in a line: Metabolic stability in mouse liver microsomes. The following applies: MLM 0.5 mg/mL, 1 μM, n = 2. In kind it is in vitro ADME. On the procedure: as §2, §3, §4

SMILES strings stand for the structures. Some results are limits rather than exact numbers.

With `COc1cc(C(=O)c2ccn(-c3ccccn3)c2)cc(OC)c1OC` [Compound 2, (1-(Pyridin-2-yl)-1H-pyrrol-3-yl)(3,4,5-trimethoxyphenyl)methanone], the melting point lay in the range of 120 to 125 °C. Further, in data set [1], the concentration for half-maximal inhibition (IC50) was found to be 1100 ± 300 nM. Besides, the IC50 with tubulin [2] was found to be 480 ± 100 nM. For the same compound, the “Inhib. colch. binding 1-5-5 (% ± SD)” value with tubulin [3] is reported as 83 ± 0.4%.

As to `COc1cc(C(=O)c2ccn(-c3cccnc3)c2)cc(OC)c1OC` [Compound 3, (1-(Pyridin-3-yl)-1H-pyrrol-3-yl)(3,4,5-trimethoxyphenyl)methanone], the figures for the half-inhibitory concentration (IC50) (in data set [1]; in the data set with tubulin [2]) were 2500 ± 70 nM and 1200 ± 100 nM, respectively. In the data set with tubulin [3], the “Inhib. colch. binding 1-5-5 (% ± SD)” value is 38 ± 3%.

Turning to `COc1cc(C(=O)c2ccn(-c3ccncc3)c2)cc(OC)c1OC` [Compound 4, (1-(Pyridin-4-yl)-1H-pyrrol-3-yl)(3,4,5-trimethoxyphenyl)methanone], the IC50 in data set [1] is 2500 ± 70 nM; with tubulin [2], over 20000 nM. For the same compound, in the data set with tubulin [3], the “Inhib. colch. binding 1-5-5 (% ± SD)” value came to 1.4 ± 5%.

For `COc1cc(C(=O)c2ccn(-c3ncccn3)c2)cc(OC)c1OC` [Compound 5, (1-(Pyrimidin-2-yl)-1H-pyrrol-3-yl)(3,4,5-trimethoxyphenyl)methanone], the IC50 in data set [1] was 220 nM; with tubulin [2] it was 490 ± 10 nM. The “Inhib. colch. binding 1-5-5 (% ± SD)” value in the data set with tubulin [3] amounted to 82 ± 1%.

Compound `COc1cc(C(=O)c2cn(-c3ccccn3)cc2-c2ccccc2)cc(OC)c1OC` [Compound 6, (4-Phenyl-1-(pyridin-2-yl)-1H-pyrrol-3-yl)(3,4,5-trimethoxyphenyl)methanone] came in with a melting point of 150 to 152 °C. The IC50 in data set [1] was 18 ± 2 nM. In addition, in the data set with tubulin [2], the IC50 worked out at 430 ± 1 nM. Further, the “Inhib. colch. binding 1-5-5 (% ± SD)” value in the data set with tubulin [3] was 92 ± 0.5%.

As to `COc1cc(C(=O)c2cn(-c3cccnc3)cc2-c2ccccc2)cc(OC)c1OC` [Compound 7, (4-Phenyl-1-(pyridin-3-yl)-1H-pyrrol-3-yl)(3,4,5-trimethoxyphenyl)methanone], the melting point was 171 to 173 °C. Further, the IC50 in data set [1] came to 50 ± 10 nM. Also, the IC50 in the data set with tubulin [2] was determined as 740 ± 10 nM. Moreover, the “Inhib. colch. binding 1-5-5 (% ± SD)” value in the data set with tubulin [3] is listed as 52 ± 5%.

In the case of `CCOc1ccc2ccc(=O)oc2c1` [Compound 7-EC, 7-ethoxycoumarin, reference compound], in data set [4], the “Cli ± SD” value turned out to be 231.3 ± 37.5 μL/min/mg protein and the “t1/2 ± SD” value was 6.1 ± 1.0 min. Further, in data set [5], the “Cli ± SD” value is given as 710.8 ± 1.2 μL/min/mg protein. The half-life at 1 h, 1 µM in data set [5] (male, CD-1, mouse, liver microsomes, pH 7.4, read-out: t1/2 ± SD) is 2 ± 0.1 min.

As to `COc1cc(C(=O)c2cn(-c3ccncc3)cc2-c2ccccc2)cc(OC)c1OC` [Compound 8, (4-Phenyl-1-(pyridin-4-yl)-1H-pyrrol-3-yl)(3,4,5-trimethoxyphenyl)methanone], in data set [1], the “Inhibition of MCF-7 cell growth (in words)” value (“Inhibition … (in words)” below) is “weak inhibitors” and the IC50 is 2700 ± 500 nM. Besides, in the data set with tubulin [2], the IC50 came to 6700 ± 100 nM. In addition, the “Inhib. colch. binding 1-5-5 (% ± SD)” value in the data set with tubulin [3] was 17 ± 4%.

Regarding `COc1cc(C(=O)c2cn(-c3ccccn3)cc2-c2ccco2)cc(OC)c1OC` [Compound 9, (4-(Furan-2-yl)-1-(pyridin-2-yl)-1H-pyrrol-3-yl)(3,4,5-trimethoxyphenyl)methanone], the IC50 in data set [1] worked out at 18 ± 4 nM; in the data set on tubulin [2], 740 nM. For the same compound, the “Inhibition of [3H]colchicine binding 1:5:1” value in the data set with tubulin [3] (inhibitor at 1:5:1 μM, 1 µM) was 69%. In addition, the “Inhib. colch. binding 1-5-5 (% ± SD)” value in the data set on tubulin [3] is given as 95 ± 0.9%.

On to `COc1cc(C(=O)c2cn(-c3cccnc3)cc2-c2ccco2)cc(OC)c1OC` [Compound 10, (4-(Furan-2-yl)-1-(pyridin-3-yl)-1H-pyrrol-3-yl)(3,4,5-trimethoxyphenyl)methanone], for which the figures for the IC50 (in data set [1]; in the data set on tubulin [2]) were 39 ± 2 nM and 1100 ± 20 nM, respectively. In the data set with tubulin [3], the “Inhib. colch. binding 1-5-5 (% ± SD)” value turned out to be 77 ± 0.1%.

Turning to `COc1cc(C(=O)c2cn(-c3ccncc3)cc2-c2ccco2)cc(OC)c1OC` [Compound 11, (4-(Furan-2-yl)-1-(pyridin-4-yl)-1H-pyrrol-3-yl)(3,4,5-trimethoxyphenyl)methanone], in data set [1], the “Inhibition … (in words)” value is “weak inhibitors” and the IC50 was 500 ± 70 nM. In the data set on tubulin [2], the IC50 turned out to be 3800 ± 700 nM. Besides, the “Inhib. colch. binding 1-5-5 (% ± SD)” value with tubulin [3] was 35 ± 3%.

As to `COc1cc(C(=O)c2cn(-c3cnccn3)cc2-c2ccco2)cc(OC)c1OC` [Compound 12, (4-(Furan-2-yl)-1-(pyrazin-2-yl)-1H-pyrrol-3-yl)(3,4,5-trimethoxyphenyl)methanone], in data set [1], the “Inhibition … (in words)” value is recorded as “strong inhibition” and the IC50 turned out to be 29 ± 1 nM. Also, the IC50 in the data set on tubulin [2] was found to be 910 ± 50 nM. In addition, the “Inhib. colch. binding 1-5-5 (% ± SD)” value with tubulin [3] was 86 ± 2%.

Consider `COc1cc(C(=O)c2cn(-c3ncccn3)cc2-c2ccccc2)cc(OC)c1OC` [Compound 13, (4-Phenyl-1-(pyrimidin-2-yl)-1H-pyrrol-3-yl)(3,4,5-trimethoxyphenyl)methanone], for which, in data set [1], the “Inhibition … (in words)” value was “strong inhibition” and the IC50 was 25 ± 8 nM. The IC50 in the data set on tubulin [2] came to 690 ± 100 nM. Further, in the data set with tubulin [3], the “Inhib. colch. binding 1-5-5 (% ± SD)” value was determined as 88 ± 2%.

Regarding `COc1cc(C(=O)c2cn(-c3cncnc3)cc2-c2ccccc2)cc(OC)c1OC` [Compound 14, (4-Phenyl-1-(pyrimidin-5-yl)-1H-pyrrol-3-yl)(3,4,5-trimethoxyphenyl)methanone], in data set [1], the “Inhibition … (in words)” value was “poor inhibitors”. The values for the IC50 (in data set [1]; in the data set with tubulin [2]) were over 5000 nM and over 20000 nM, respectively. The “Inhib. colch. binding 1-5-5 (% ± SD)” value with tubulin [3] came to 4.7 ± 5%.

On to `COc1cc(C(=O)c2cn(-c3cncnc3)cc2-c2ccco2)cc(OC)c1OC` [Compound 16, (4-(Furan-2-yl)-1-(pyrimidin-5-yl)-1H-pyrrol-3-yl)(3,4,5-trimethoxyphenyl)methanone], for which, in data set [1], the “Inhibition … (in words)” value is “poor inhibitors” and the IC50 turned out to be 580 ± 30 nM. The IC50 in the data set with tubulin [2] stood at 6700 ± 900 nM. Moreover, the “Inhib. colch. binding 1-5-5 (% ± SD)” value with tubulin [3] came to 19 ± 2%.

What is called IC50 is the concentration at which inhibition is half-maximal. The melting point is the temperature, or range, at which the solid turns liquid.
